These results are taken from patent US8946238B2, “Pyrazolo[1,5-A]pyrimidines as antiviral agents” (Gilead Sciences, Inc., priority 2011, dated 2015).

This assay concerns RSV strain A2. The assay is described as follows: RSV antiviral cytoprotection assay in Hep2 cells (RSV-induced cytopathic effect, Cell TiterGlo). To be noted: human respiratory syncytial virus, HEp-2, 0.5 μM compound; RSV A2-infected Hep2 cells; % inhibition calculated from 4-parameter dose response curve, normalized to 0% and 100%; read-out: Percent inhibition at 0.5 μM. It counts as cell-based, Respiratory Syncytial Virus (RSV). On the procedure: Antiviral activity against RSV was determined using an in vitro cytoprotection assay in Hep2 cells. […] The method used was similar to methods previously described in published literature (Chapman et al., Antimicrob Agents Chemother. 2007, 51(9):3346-53.)
Hep2 cells were obtained from ATCC (Manassas, VI) and maintained in MEM media supplemented with 10% fetal bovine serum and penicillin/streptomycin. Cells were passaged twice a week and kept at subconfluent stage. Commercial stock of RSV strain A2 (Advanced Biotechnologies, Columbia, Md.) was titered before compound testing to determine the appropriate dilution of the virus stock that generated desirable cytopathic effect in Hep2 cells.
For antiviral tests, Hep2 cells were seeded into 96-well plates 24 hours before the assay at a density of 3,000 cells/well. On a separate 96 well plate, compounds to be tested were serially diluted in cell culture media. Eight concentrations in 3-fold serial dilution increments were prepared for each tested compound and 100 uL/well of each dilution was transferred in duplicate onto plates with seeded Hep2 cells. Subsequently, appropriate dilution of virus stock previously determined by titration was prepared in cell culture media and 100 uL/well was added to test plates containing cells and serially diluted compounds. Each plate included three wells of infected untreated cells and three wells of uninfected cells that served as 0% and 100% virus inhibition control, respectively. Following the infection with RSV, testing plates were incubated for 4 days in a tissue culture incubator. After the incubation, RSV-induced cytopathic effect was determined using a Cell TiterGlo reagent (Promega, Madison, Wis.) followed by a luminescence read-out. The percentage inhibition was calculated for each tested concentration relative to the 0% and 100% inhibition controls and the EC50 value for each compound was determined by non-linear regression as a concentration inhibiting the RSV-induced cytopathic effect by 50%. Ribavirin (purchased from Sigma, St. Louis, Mo.) was used as a positive control for antiviral activity.
Compounds were also tested for antiviral activity against RSV in Hep2 cells using a 384 well format. Compounds were diluted in DMSO using a 10-step serial dilution in 3-fold increments via automation in 4 adjacent replicates each. Eight compounds were tested per dilution plate. 0.4 uL of diluted compounds were then stamped via Biomek into 384-well plates (Nunc 142761 or 164730 w/lid 264616) containing 20 μL of media (Mediatech Inc. MEM supplemented with Glutamine, 10% FBS and Pen/Strep). DMSO and a suitable positive control compound, such as 80 μM GS-329467 or 10 μM 427346 was used for the 100% and 0% cell killing controls, respectively.
Hep2 cells (1.0×10^5 cells/ml) were prepared as above in batch to at least 40 mls excess of the number of sample plates (8 mls cell mix per plate) and infected with vendor supplied (ABI) RSV strain A2 to arrive at an MOI of 1:1000 (virus:cell #) or 1:3000 (vol virus: cell vol). Immediately after addition of virus, the RSV infected Hep2 cell suspension was added to each stamped 384-well plate at 20 μl per well using a uFlow dispenser, giving a final volume of 40 μL/well, each with 2000 infected cells. The plates were then incubated for 5 days at 37° C. and 5% CO2. Following incubation, the plates were equilibrated to room temperature in a biosafety cabinet hood for 1.5 hrs and 40 μL of Cell-Titer Glo viability reagent (Promega) was added to each well via uFlow. Following a10-20 minute incubation, the plates were read using an EnVision or Victor Luminescence plate reader (Perkin-Elmer). The data was then uploaded and analyzed on the Bioinformatics portal under the RSV Cell Infectivity and 8-plate EC50-Hep2-384 or 8-plate EC50-Hep2-Envision protocols. […]
In the case of `Cc1cn2nc([C@@H]3CCCCN3C(=O)c3cc(Cl)ccc3NS(C)(=O)=O)cc2nc1NCC(C)N` (stereo partly drawn) [Compound 1], the inhibition – broadly, the percentage by which the read-out fell short of the control – at 0.5 µM was 100%.

In the case of `Cc1cn2nc([C@@H]3CCCCN3C(=O)c3cc(Cl)ccc3NS(C)(=O)=O)cc2nc1NCC1(N)CC1` [Compound 2], the inhibition at 0.5 µM was 100%.

As to `Cc1cn2nc([C@@H]3CCCCN3C(=O)c3cc(Cl)ccc3NS(C)(=O)=O)cc2nc1NCC(N)c1ccccc1` (stereo partly drawn) [Compound 3], the inhibition at 0.5 µM is 100%.

Regarding `Cc1cn2nc([C@@H]3CCCCN3C(=O)c3cc(Cl)ccc3NS(C)(=O)=O)cc2nc1N1C[C@@H](N)[C@H](c2ccccc2)C1` [Compound 4], the inhibition at 0.5 µM was 100%.

In the case of `Cc1cn2nc([C@@H]3CCCCN3C(=O)c3cc(Cl)ccc3NS(C)(=O)=O)cc2nc1NC(C)CN` (stereo partly drawn) [Compound 5], the inhibition at 0.5 µM was 100%.

Consider `Cc1cn2nc([C@@H]3CCCCN3C(=O)c3cc(Cl)ccc3NS(C)(=O)=O)cc2nc1N[C@H]1C[C@@H](N)C1` [Compound 6], for which the inhibition at 0.5 µM was 100%.

As for `Cc1cn2nc([C@@H]3CCCCN3C(=O)c3cc(Cl)ccc3NS(C)(=O)=O)cc2nc1N1CCN[C@@H](C)C1` [Compound 7], the inhibition at 0.5 µM was 100%.

In the case of `Cc1cn2nc([C@@H]3CCCCN3C(=O)c3cc(Cl)ccc3NS(C)(=O)=O)cc2nc1NC(CN)c1ccccc1` (stereo partly drawn) [Compound 8], the inhibition at 0.5 µM is 90%.

In the case of `COC(=O)[C@H]1C[C@H](N)CN1c1nc2cc([C@@H]3CCCCN3C(=O)c3cc(Cl)ccc3NS(C)(=O)=O)nn2cc1C` [Compound 9], the inhibition at 0.5 µM was 99%.

As for `CN[C@@H]1CCN(c2nc3cc([C@@H]4CCCCN4C(=O)c4cc(Cl)ccc4NS(C)(=O)=O)nn3cc2C)C1` [Compound 10], the inhibition at 0.5 µM was 95%.

`CN[C@H]1CCN(c2nc3cc([C@@H]4CCCCN4C(=O)c4cc(Cl)ccc4NS(C)(=O)=O)nn3cc2C)C1` [Compound 11]: the inhibition at 0.5 µM is 92%.

As for `COC(=O)[C@H]1C[C@@H](N)CN1c1nc2cc([C@@H]3CCCCN3C(=O)c3cc(Cl)ccc3NS(C)(=O)=O)nn2cc1C` [Compound 12], the inhibition at 0.5 µM was 89%.

On to `Cc1cn2nc([C@@H]3CCCCN3C(=O)c3cc(Cl)ccc3NS(C)(=O)=O)cc2nc1N1CCN[C@@H](COCc2ccccc2)C1` [Compound 13], for which the inhibition at 0.5 µM is 82%.

Take `Cc1cn2nc([C@@H]3CCCCN3C(=O)c3cc(Cl)ccc3NS(C)(=O)=O)cc2nc1N1C[C@H](N)C[C@@H]1C(=O)O` [Compound 14]: the inhibition at 0.5 µM is 81%.

Turning to `Cc1cn2nc([C@@H]3CCCCN3C(=O)c3cc(Cl)ccc3NS(C)(=O)=O)cc2nc1NCC1CCCNC1` (stereo partly drawn) [Compound 15], the inhibition at 0.5 µM was 82%.

Consider `Cc1cn2nc([C@@H]3CCCCN3C(=O)c3cc(Cl)ccc3NS(C)(=O)=O)cc2nc1N1C[C@@H]2CCN[C@@H]2C1` [Compound 16], for which the inhibition at 0.5 µM is 71%.

For the compound `Cc1cn2nc([C@@H]3CCCCN3C(=O)c3cc(Cl)ccc3NS(C)(=O)=O)cc2nc1N1CCN[C@H](Cc2ccccc2)C1` [Compound 17], the inhibition at 0.5 µM is 70%.

For the compound `Cc1cn2nc([C@@H]3CCCCN3C(=O)c3cc(Cl)ccc3NS(C)(=O)=O)cc2nc1N1C[C@@H]2C[C@H]1CN2` [Compound 18], the inhibition at 0.5 µM is 70%.

For `Cc1cn2nc([C@@H]3CCCCN3C(=O)c3cc(Cl)ccc3NS(C)(=O)=O)cc2nc1N1C[C@@H](N)C[C@@H]1C(=O)O` [Compound 19], the inhibition at 0.5 µM is 70%.

As for `Cc1cn2nc([C@@H]3CCCCN3C(=O)c3cc(Cl)ccc3NS(C)(=O)=O)cc2nc1N1CC(C)NC(C)C1` (stereo partly drawn) [Compound 20], the inhibition at 0.5 µM was 63%.

In the case of `Cc1cn2nc([C@@H]3CCCCN3C(=O)c3cc(Cl)ccc3NS(C)(=O)=O)cc2nc1N[C@H]1C[C@H]2C[C@@H]1CN2` [Compound 21], the inhibition at 0.5 µM was 58%.

As for `Cc1cn2nc([C@@H]3CCCCN3C(=O)c3cc(Cl)ccc3NS(C)(=O)=O)cc2nc1N1CCN[C@@H](C(C)C)C1` [Compound 22], the inhibition at 0.5 µM was 55%.

Take `CNC(=O)[C@H]1CN(c2nc3cc([C@@H]4CCCCN4C(=O)c4cc(Cl)ccc4NS(C)(=O)=O)nn3cc2C)CCN1` [Compound 23]: the inhibition at 0.5 µM is 48%.

In the case of `Cc1cn2nc([C@@H]3CCCCN3C(=O)c3cc(Cl)ccc3NS(C)(=O)=O)cc2nc1N1C[C@H](C)NC[C@H]1C` [Compound 24], the inhibition at 0.5 µM was 30%.

As for `Cc1cn2nc([C@@H]3CCCCN3C(=O)c3cccc(F)c3C)cc2nc1N1CC[C@H](N)C1` [Compound 25], the inhibition at 0.5 µM was 100%.

Take `Cc1cn2nc([C@@H]3CCCCN3C(=O)c3ccc(F)cn3)cc2nc1N1CC[C@H](N)C1` [Compound 26]: the inhibition at 0.5 µM was 84%.

For the compound `COc1ccccc1C(=O)N1CCCC[C@H]1c1cc2nc(N3CC[C@H](N)C3)c(C)cn2n1` [Compound 27], the inhibition at 0.5 µM is 100%.

For `Cc1cn2nc([C@@H]3CCCCN3C(=O)c3cc(F)c(F)c(Cl)c3F)cc2nc1N1CC[C@H](N)C1` [Compound 28], the inhibition at 0.5 µM was 100%.

For the compound `COc1ccc(S(N)(=O)=O)cc1C(=O)N1CCCC[C@H]1c1cc2nc(N3CC[C@H](N)C3)c(C)cn2n1` [Compound 29], the inhibition at 0.5 µM is 71%.

Turning to `Cc1cn2nc([C@@H]3CCCCN3C(=O)c3cccc(F)c3Cl)cc2nc1N1CC[C@H](N)C1` [Compound 30], the inhibition at 0.5 µM was 100%.

For `Cc1cn2nc([C@@H]3CCCCN3C(=O)c3cccc4c3CCCC4)cc2nc1N1CC[C@H](N)C1` [Compound 31], the inhibition at 0.5 µM was 100%.

In the case of `Cc1cn2nc([C@@H]3CCCCN3C(=O)c3ccc(C#N)cc3F)cc2nc1N1CC[C@H](N)C1` [Compound 32], the inhibition at 0.5 µM is 79%.

For `Cc1cn2nc([C@@H]3CCCCN3C(=O)c3ccc(C)c(F)c3F)cc2nc1N1CC[C@H](N)C1` [Compound 33], the inhibition at 0.5 µM was 99%.

On to `COc1ccc(C(C)(C)C)cc1C(=O)N1CCCC[C@H]1c1cc2nc(N3CC[C@H](N)C3)c(C)cn2n1` [Compound 34], for which the inhibition at 0.5 µM was 13%.

Take `Cc1ccc(C(F)(F)F)c(C(=O)N2CCCC[C@H]2c2cc3nc(N4CC[C@H](N)C4)c(C)cn3n2)c1` [Compound 35]: the inhibition at 0.5 µM was 100%.

With `Cc1ccc(C(=O)N2CCCC[C@H]2c2cc3nc(N4CC[C@H](N)C4)c(C)cn3n2)c(C(F)(F)F)c1` [Compound 36], the inhibition at 0.5 µM was 98%.

As to `Cc1cn2nc([C@@H]3CCCCN3C(=O)c3cc(F)ccc3OC(F)(F)F)cc2nc1N1CC[C@H](N)C1` [Compound 37], the inhibition at 0.5 µM is 100%.

For the compound `Cc1cn2nc([C@@H]3CCCCN3C(=O)c3cccc4cn[nH]c34)cc2nc1N1CC[C@H](N)C1` [Compound 38], the inhibition at 0.5 µM was 100%.

As to `Cc1cn2nc([C@@H]3CCCCN3C(=O)c3c(F)ccc(C)c3F)cc2nc1N1CC[C@H](N)C1` [Compound 39], the inhibition at 0.5 µM was 100%.

Consider `Cc1cn2nc([C@@H]3CCCCN3C(=O)c3ccc4cnccc4n3)cc2nc1N1CC[C@H](N)C1` [Compound 41], for which the inhibition at 0.5 µM was 4%.

On to `Cc1cn2nc([C@@H]3CCCCN3C(=O)c3ccc(-c4ccccc4)cn3)cc2nc1N1CC[C@H](N)C1` [Compound 42], for which the inhibition at 0.5 µM was 9%.

In the case of `Cc1cn2nc([C@@H]3CCCCN3C(=O)c3cccc4[nH]cnc34)cc2nc1N1CC[C@H](N)C1` [Compound 43], the inhibition at 0.5 µM is 88%.

Consider `Cc1cn2nc([C@@H]3CCCCN3C(=O)c3cccc(F)c3C(F)(F)F)cc2nc1N1CC[C@H](N)C1` [Compound 44], for which the inhibition at 0.5 µM is 100%.

For `Cc1cn2nc([C@@H]3CCCCN3C(=O)c3ccccc3S(N)(=O)=O)cc2nc1N1CC[C@H](N)C1` [Compound 45], the inhibition at 0.5 µM is 45%.

Turning to `Cc1cn2nc([C@@H]3CCCCN3C(=O)c3cccc4ccncc34)cc2nc1N1CC[C@H](N)C1` [Compound 46], the inhibition at 0.5 µM was 100%.
